In patent publication US20240239752A1, “BICYCLIC HETEROAROMATIC INHIBITORS OF KLK5” (BioCryst Pharmaceuticals, Inc., priority 2021, published 2024):

Each molecule was assayed against T1, recombinant human KLK5 (Homo sapiens, UniProt Q9Y337) (assay: Kallikrein (KLK) 5 enzymatic assay (Boc-VPR-AMC fluorogenic substrate)). Conditions: recombinant human KLK5 0.1 μg/well, Boc-VPR-AMC 100 μM, pH 7.5, room temperature, 1% DMSO; tested a minimum of three times.
T1 construct: purchased Novoprotein or R&D Systems C415 or 1108-SE
T1 sequence (Q9Y337 23-293): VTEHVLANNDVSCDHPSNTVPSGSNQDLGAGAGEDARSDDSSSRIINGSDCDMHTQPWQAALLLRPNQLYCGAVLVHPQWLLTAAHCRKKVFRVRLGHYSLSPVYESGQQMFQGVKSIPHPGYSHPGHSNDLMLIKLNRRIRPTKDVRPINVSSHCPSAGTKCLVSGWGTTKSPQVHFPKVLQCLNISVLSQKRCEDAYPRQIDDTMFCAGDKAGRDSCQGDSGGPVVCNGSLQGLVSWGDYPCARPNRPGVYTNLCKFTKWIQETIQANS
Assay type: biochemical
How it was run: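 Recombinant human KLK5 (0.1 μg/well) was preincubated with compound at room temperature in 0.1 M NaH2PO4, pH 7.5, 1% DMSO, then started with 100 μM Boc-VPR-AMC. The rate was followed at 380/460 nm, and IC50 came from percent inhibition relative to enzyme alone, with at least three runs.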
`Nc1nccc2c(-c3ccc4c(c3)c(COc3ccccc3CC(=O)O)nn4C3CCC(F)(F)C3)cccc12` (centres unmarked) [Compound 265h, 2-(2-((5-(1-aminoisoquinolin-5-yl)-1-(3,3-difluorocyclopentyl)-1H-indazol-3-yl)methoxy)phenyl)acetic acid] gave an IC50 of under 1 µM.
Work on `Nc1nccc2ccc(-c3ccc4nn(C5CCC5)c(COc5cc(F)ccc5CC(=O)O)c4c3)cc12` [Compound 149d, 2-(2-((5-(1-aminoisoquinolin-7-yl)-2-cyclobutyl-2H-indazol-3-yl)methoxy)-4-fluorophenyl)acetic acid] yielded an IC50 of 1 to 10 µM.
`CC(C)CCN1CCC(n2nc3ccc(-c4ccc5ccnc(N)c5c4)cc3c2COc2ccccc2CC(=O)O)CC1` [Compound 131h, 2-(2-((5-(1-aminoisoquinolin-7-yl)-2-(1-isopentylpiperidin-4-yl)-2H-indazol-3-yl)methoxy)phenyl)acetic acid] was tested, and the IC50 was under 1 µM.
Molecule `Nc1nccc2ccc(-c3ccc4c(c3)c(COc3ccccc3CC(=O)O)nn4C3CC(F)(F)C3)cc12` [Compound 11e, 2-(2-((5-(1-aminoisoquinolin-7-yl)-1-(3,3-difluorocyclobutyl)-1H-indazol-3-yl)methoxy)phenyl)acetic acid] has an IC50 of under 1 µM.
`CC(C)n1nc(COc2ccccc2CC(=O)O)c2cc(-c3ccc4ncnc(N)c4c3)ccc21` [Compound 39c, 2-(2-((5-(4-aminoquinazolin-6-yl)-1-isopropyl-1H-indazol-3-yl)methoxy)phenyl)acetic acid] gave an IC50 of over 10 µM.
For `CC(C)(C)OC(=O)N1CC(Cn2nc3ccc(-c4ccc5ccnc(N)c5c4)cc3c2COc2ccccc2CC(=O)O)C1` [Compound 141b, 2-(2-((5-(1-aminoisoquinolin-7-yl)-2-((1-(tert-butoxycarbonyl)azetidin-3-yl)methyl)-2H-indazol-3-yl)methoxy)phenyl)acetic acid], the IC50 was 1 to 10 µM.
Molecule `COc1ncc(N)c2cc(-c3ccc4c(c3)c(COc3ccccc3CC(=O)O)nn4C(C)C)ccc12` [Compound 73d, 2-(2-((5-(4-amino-1-methoxyisoquinolin-6-yl)-1-isopropyl-1H-indazol-3-yl)methoxy)phenyl)acetic acid] has an IC50 of over 10 µM.
`N=C(N)c1cccc(-c2ccc3c(c2)c(COc2ccccc2CC(=O)O)nn3C2CCOC2)c1` (centres unmarked) [Compound 96g, 2-(2-((5-(3-carbamimidoylphenyl)-1-(tetrahydrofuran-3-yl)-1H-indazol-3-yl)methoxy)phenyl)acetic acid] gave an IC50 of under 1 µM.
`CCC(CC)n1nc(COc2ccccc2CC(=O)O)c2cc(-c3ccc4ccnc(N)c4c3)ccc21` [Compound 110e, 2-(2-((5-(1-aminoisoquinolin-7-yl)-1-(pentan-3-yl)-1H-indazol-3-yl)methoxy)phenyl)acetic acid] showed an IC50 of under 1 µM.
`N=C(N)c1cccc(-c2cc(OCc3nccs3)c3occ(COc4ccccc4CC(=O)O)c3c2)c1` [Compound 228f, 2-(2-((5-(3-carbamimidoylphenyl)-7-(thiazol-2-ylmethoxy)benzofuran-3-yl)methoxy)phenyl)acetic acid] gave an IC50 of under 1 µM.
With `Cc1cccc(OCc2nn(C3CCOC3)c3ccc(-c4cccc5c(N)nccc45)cc23)c1CC(=O)O` (centres unmarked) [Compound 247c, 2-(2-((5-(1-aminoisoquinolin-5-yl)-1-(tetrahydrofuran-3-yl)-1H-indazol-3-yl)methoxy)-6-methylphenyl)acetic acid] the IC50 was under 1 µM.
`CC(C)n1nc(COc2ccccc2CC(=O)O)c2cc(-c3ccc4onc(N)c4c3)ccc21` [Compound 102c, 2-(2-((5-(3-aminobenzo[d]isoxazol-5-yl)-1-isopropyl-1H-indazol-3-yl)methoxy)phenyl)acetic acid] gave an IC50 of 1 to 10 µM.
Work on `CCOC(=O)N1CCC(n2nc(COc3ccccc3CC(=O)O)c3cc(-c4ccc5ccnc(N)c5c4)ccc32)C1` (centres unmarked) [Compound 310c, 2-(2-((5-(1-aminoisoquinolin-7-yl)-1-(1-(ethoxycarbonyl)pyrrolidin-3-yl)-1H-indazol-3-yl)methoxy)phenyl)acetic acid] yielded an IC50 of under 1 µM.
`COC(=O)N1CCC2(CC1)CC(Oc1cccc(C)c1CC(=O)O)c1cc(-c3ccc4ccnc(N)c4c3)ccc12` (centres unmarked) [Compound 381e, 2-(2-((5-(1-aminoisoquinolin-7-yl)-1′-(methoxycarbonyl)-2,3-dihydrospiro[indene-1,4′-piperidin]-3-yl)oxy)-6-methylphenyl)acetic acid] gave an IC50 of under 1 µM.
`Cc1cccc(OC2CC3(CCN(C(=O)OCC(C)C)CC3)c3ccc(-c4ccc5ccnc(N)c5c4)cc32)c1CC(=O)O` (centres unmarked) [Compound 450c, 2-(2-((5-(1-aminoisoquinolin-7-yl)-1′-(isobutoxycarbonyl)-2,3-dihydrospiro[indene-1,4′-piperidin]-3-yl)oxy)-6-methylphenyl)acetic acid] gave an IC50 of under 1 µM.
In the case of `COc1cc(-c2cccc(C(=N)N)c2)cc2c(COc3ccccc3CC(=O)O)coc12` [Compound 236b, 2-(2-((5-(3-carbamimidoylphenyl)-7-methoxybenzofuran-3-yl)methoxy)phenyl)acetic acid], the IC50 is reported as under 1 µM.
Work on `COc1c(-c2ccc3c(c2)c(COc2ccccc2CC(=O)O)nn3C(C)C)ccnc1C(=N)N` [Compound 81d, 2-(2-((5-(2-carbamimidoyl-3-methoxypyridin-4-yl)-1-isopropyl-1H-indazol-3-yl)methoxy)phenyl)acetic acid] yielded an IC50 of under 1 µM.
With `CC(C)N1CCN(C2CC(Oc3ccccc3CC(=O)O)c3cc(-c4ccc5ccnc(N)c5c4)ccc32)CC1` (centres unmarked) [Compound 457b] the IC50 was under 1 µM.
Work on `N=C(N)c1cccc(-c2ccc3c(c2)c(COc2ccccc2CC(=O)O)nn3C2CCCC2)c1` [Compound 224b, 2-(2-((5-(3-carbamimidoylphenyl)-1-cyclopentyl-1H-indazol-3-yl)methoxy)phenyl)acetic acid] yielded an IC50 of under 1 µM.
Work on `COc1ccc(OCc2nn(C3CCC3)c3ccc(-c4cccc5c(N)nccc45)cc23)c(CC(=O)O)c1` [Compound 171b, 2-(2-((5-(1-aminoisoquinolin-5-yl)-1-cyclobutyl-1H-indazol-3-yl)methoxy)-5-methoxyphenyl)acetic acid] yielded an IC50 of under 1 µM.
`CC(C)n1nc(COc2ccccc2CC(=O)O)c2cc(-c3ccc4c(N)nc(N)nc4c3)ccc21` [Compound 41c, 2-(2-((5-(2,4-diaminoquinazolin-7-yl)-1-isopropyl-1H-indazol-3-yl)methoxy)phenyl)acetic acid] gave an IC50 of over 10 µM.
`Nc1nccc2ccc(-c3ccc4c(c3)c(COc3ccccc3CC(=O)O)nn4[C@@H]3CCOC3)cc12` [Compound 246b, (R)-2-(2-((5-(1-aminoisoquinolin-7-yl)-1-(tetrahydrofuran-3-yl)-1H-indazol-3-yl)methoxy)phenyl)acetic acid] was tested, and the IC50 was under 1 µM.
Molecule `Nc1nccc2ccc(-c3ccc4c(c3)c(COc3ccc(F)cc3CC(=O)O)nn4C3CCC3)cc12` [Compound 166d, 2-(2-((5-(1-aminoisoquinolin-7-yl)-1-cyclobutyl-1H-indazol-3-yl)methoxy)-5-fluorophenyl)acetic acid] has an IC50 of under 1 µM.
In the case of `Nc1nccc2ccc(-c3ccc4nn(C5CC(N)C5)c(COc5ccccc5CC(=O)O)c4c3)cc12` (centres unmarked) [Compound 138b, 2-(2-((2-(3-aminocyclobutyl)-5-(1-aminoisoquinolin-7-yl)-2H-indazol-3-yl)methoxy)phenyl)acetic acid], the IC50 is reported as 1 to 10 µM.
`CC(C)OC(=O)N1CC[C@@H](n2nc(COc3ccccc3CC(=O)O)c3cc(-c4cccc5c(N)nccc45)ccc32)C1` [Compound 363b, (R)-2-(2-((5-(1-aminoisoquinolin-5-yl)-1-(1-(isopropoxycarbonyl)pyrrolidin-3-yl)-1H-indazol-3-yl)methoxy)phenyl)acetic acid] gave an IC50 of under 1 µM.
Work on `COc1c(-c2cc3c(COc4ccccc4CC(=O)O)cccc3o2)ccnc1CN` [Compound 329d, 2-(2-((2-(2-(aminomethyl)-3-methoxypyridin-4-yl)benzofuran-4-yl)methoxy)phenyl)acetic acid] yielded an IC50 of 1 to 10 µM.
`CC(C)(C)OC(=O)N1CC(n2nc(COc3ccccc3CC(=O)O)c3cc(-c4ccc5ccnc(N)c5c4)ccc32)C1` [Compound 10e, 2-(2-((5-(1-aminoisoquinolin-7-yl)-1-(1-(tert-butoxycarbonyl)azetidin-3-yl)-1H-indazol-3-yl)methoxy)phenyl)acetic acid] gave an IC50 of under 1 µM.
For `CCCCn1nc(COc2ccccc2CC(=O)O)c2cc(-c3ccc4ccnc(N)c4c3)ccc21` [Compound 184e, 2-(2-((5-(1-aminoisoquinolin-7-yl)-1-butyl-1H-indazol-3-yl)methoxy)phenyl)acetic acid], the IC50 was under 1 µM.
`NCc1cc(-c2cccc3c(N)nccc23)cc2c(COc3ccccc3CC(=O)O)nn(C3CCCCO3)c12` (centres unmarked) [Compound 287a, 2-(2-((5-(1-aminoisoquinolin-5-yl)-7-(aminomethyl)-1-(tetrahydro-2H-pyran-2-yl)-1H-indazol-3-yl)methoxy)phenyl)acetic acid] was tested, and the IC50 was 1 to 10 µM.
`Nc1nccc2c(-c3ccc4nn(C5CCC5)c(COc5cc(OC(F)(F)F)ccc5CC(=O)O)c4c3)cccc12` [Compound 154b, 2-(2-((5-(1-aminoisoquinolin-5-yl)-2-cyclobutyl-2H-indazol-3-yl)methoxy)-4-(trifluoromethoxy)phenyl)acetic acid] was tested, and the IC50 was 1 to 10 µM.
With `Nc1nccc2c(-c3ccc4c(c3)c(COc3ccccc3CC(=O)O)nn4CCF)cccc12` [Compound 183b, 2-(2-((5-(1-aminoisoquinolin-5-yl)-1-(2-fluoroethyl)-1H-indazol-3-yl)methoxy)phenyl)acetic acid] the IC50 was under 1 µM.
`COc1ccc(O[C@@H]2CCc3ccc(-c4cccc5c(N)nccc45)cc32)c(CC(=O)O)c1` [Compound 431c, (R)-2-(2-((6-(1-aminoisoquinolin-5-yl)-2,3-dihydro-1H-inden-1-yl)oxy)-5-methoxyphenyl)acetic acid] gave an IC50 of under 1 µM.
